Common to all, as to type: in vivo, KSN nude mice
Series [1] deals with human esophageal squamous cell carcinoma cells TE-8. The series can be described thus: Biological distribution of biotinated αSQMG in tumor of tumor-bearing nude mice (TRITC-avidin staining of tumor segments). Conditions: intravenous 40, 20 and 2 mg/kg, FIG. 1. Here is the method:
1×10^6 of human esophageal squamous cell carcinoma cells TE-8 were transplanted into the right femoral region of 11 male KSN nude mice (Japan SLC, Inc.), and the mice were bred to form a tumor mass of about […] volume.
Thereafter, biotinated αSQMG C18:0 (formula XI) was dissolved in physiological saline solution, and 0.1 mL of the solution per administration was intravenously administered to each group comprising three mice so that the amount of the biotinated αSQMG C18:0 could be 40 mg/kg, 20 mg/kg, and 2 mg/kg. To two reference tumor bearing mice, physiological saline was administered. […]
In order to evaluate a tumor region which emits fluorescence due to TRITC, binarization imaging was performed with use of Photoshop. Thereafter, a portion (fraction) containing tumor tissues was selected from the visual field, and the number of pixels of a TRITC positive region (black color region) and the entire region were counted and the ratio of the positive region was calculated according to the formula:
The proportion (%) of biotinated αSQAP detected region=[the area of the black color region (region where the biotinated αSQMG was detected)]/[the area of the whole of the selected fraction]×100=[the number of pixels in the TRITC positive region]/[the number of pixels in the whole fraction]×100 (%) formula (A) […]

Series [2] relates to human colon carcinoma cells (SW480). The series is described as follows: Pharmacokinetics 1: concentration-time course in blood plasma, organs and tumor after intraperitoneal administration (LC/MS). Conditions: 10 mg/kg intraperitoneal. As for the experimental part:
To eight-week-old male KSN nude mice (Japan SLC, Inc.), 2×10^6 of human colon carcinoma cells (SW480) were transplanted subcutaneously, two weeks later (body weight approximately 25 g, tumor volume approximately 200 mm^3) αSQMG C18:0 or αSQAP C18:0 was dissolved in physiological saline solution and administered intraperitoneally at a dose of 10 mg/kg (0.1 mL). After the administration, the mice were slaughtered chronologically with carbon dioxide; 30 minute, 1 hour, 2 hours, 4 hours, 12 hours, and 24 hours after the administration. Tissues of blood, liver, kidney, lung and spleen, and tumor tissue were then collected. At each time when tissues were collected, five animals were used.
Whole blood was collected from postcaval vein with use of an injection needle wetted with heparin sodium injection solution (10,000 unit/10 mL) to obtain blood plasma by 20 minutes of centrifugation at 6,000 g. To 90 μl of blood plasma, 5 μl of an internal standard compound (αSQMG C16:0), 5 μl of distilled water, and 4 μl of phosphoric acid were added, and denatured protein by adding 96 μl of acetonitrile. To 0.2 mL of the solution, 600 μl of 10 mM ammonium acetate solution was added, and stirred sufficiently to obtain supernatant by centrifugation at 16,000 g for 15 minutes. The supernatant was subjected to solid-phase extraction operation as described below. The solid-phase extraction was performed by washing with 1000 μl of 10 mM ammonium acetate aqueous solution and 200 μl of 10 mM ammonium acetate aqueous solution containing 10% acetonitrile, followed by elution of a test compound with 200 μl of 10 mM ammonium acetate aqueous solution containing 70% acetonitrile with use of Empore (trademark) disc cartridge (3M Company, product number 4115SD). The compound was used as a LC/MS analytical sample.
Each organ was extirpated after collection of blood and immediately frozen on dry ice. The frozen sample was subjected to frost shattering, and the weight was measured. Subsequently, ½-fold (weight ratio) internal standard compound (αSQMG C16:0) and distilled water were added, and 8-fold (weight ratio) extraction solution (2.5% NP-40, 2% phosphoric acid, 2 mM Eserine aqueous solution) was further added to the sample, followed by homogenization. The homogenized solution was subjected to protein denaturation with acetonitrile and solid phase extraction in the same manner as the above-mentioned treatment of blood plasma to obtain an analytical sample.
10 μl of the analytical sample was separated with a reverse phase HPLC system equipped with Capcell Pak MG column (particle diameter; 3 μm, column size; 2.1×50 mm, Shiseido Co., Ltd.). HPLC was performed with 68% acetonitrile and a single solvent of 10 mM ammonium acetate aqueous solution at a flow rate of 0.2 mL per minute. Mass spectrum was measured in a negative mode, and the peak area ratio of the internal standard compound was calculated by integration of the peak area from chromatogram corresponding to each ion by measuring a precursor ion; m/z=583.1, fragment ion; m/z=224.7 and m/z=298.8 for αSQMG C18:0, a precursor ion; m/z=567.1, fragment ion; m/z=224.7 and m/z=283.1 for αSQAP C18:0, and a precursor ion; m/z=555.1, fragment ion; m/z=224.7 and m/z=298.8 for a internal standard compound αSQMG C16:0. As a method of quantitative analysis, an internal standard analysis was adopted. More specifically, a standard curve was drawn based on the peak area ratio of the internal standard compound by analyzing the sample to which the test compound was added, to determine the quantity of the test compound.

Series [3] deals with human sophageal squamous cell carcinoma cells TE-8. The series is described as follows: Pharmacokinetics 2: concentration-time course in blood plasma, organs and tumor after intravenous administration (LC/MS). The note with it: 1 mg/kg intravenous. As for the experimental part:
To eight-week-old male KSN nude mice (Japan SLC, Inc.), 2×10^6 of human colon carcinoma cells (SW480) were transplanted subcutaneously, two weeks later (body weight approximately 25 g, tumor volume approximately 200 mm^3) αSQMG C18:0 or αSQAP C18:0 was dissolved in physiological saline solution and administered intraperitoneally at a dose of 10 mg/kg (0.1 mL). After the administration, the mice were slaughtered chronologically with carbon dioxide; 30 minute, 1 hour, 2 hours, 4 hours, 12 hours, and 24 hours after the administration. Tissues of blood, liver, kidney, lung and spleen, and tumor tissue were then collected. At each time when tissues were collected, five animals were used. Whole blood was collected from postcaval vein with use of an injection needle wetted with heparin sodium injection solution (10,000 unit/10 mL) to obtain blood plasma by 20 minutes of centrifugation at 6,000 g. To 90 μl of blood plasma, 5 μl of an internal standard compound (αSQMG C16:0), 5 μl of distilled water, and 4 μl of phosphoric acid were added, and denatured protein by adding 96 μl of acetonitrile. To 0.2 mL of the solution, 600 μl of 10 mM ammonium acetate solution was added, and stirred sufficiently to obtain supernatant by centrifugation at 16,000 g for 15 minutes. The supernatant was subjected to solid-phase extraction operation as described below. The solid-phase extraction was performed by washing with 1000 μl of 10 mM ammonium acetate aqueous solution and 200 μl of 10 mM ammonium acetate aqueous solution containing 10% acetonitrile, followed by elution of a test compound with 200 μl of 10 mM ammonium acetate aqueous solution containing 70% acetonitrile with use of Empore (trademark) disc cartridge (3M Company, product number 4115SD). The compound was used as a LC/MS analytical sample. Each organ was extirpated after collection of blood and immediately frozen on dry ice. The frozen sample was subjected to frost shattering, and the weight was measured. Subsequently, ½-fold (weight ratio) internal standard compound (αSQMG C16:0) and distilled water were added, and 8-fold (weight ratio) extraction solution (2.5% NP-40, 2% phosphoric acid, 2 mM Eserine aqueous solution) was further added to the sample, followed by homogenization. The homogenized solution was subjected to protein denaturation with acetonitrile and solid phase extraction in the same manner as the above-mentioned treatment of blood plasma to obtain an analytical sample. 10 μl of the analytical sample was separated with a reverse phase HPLC system equipped with Capcell Pak MG column (particle diameter; 3 μm, column size; 2.1×50 mm, Shiseido Co., Ltd.). HPLC was performed with 68% acetonitrile and a single solvent of 10 mM ammonium acetate aqueous solution at a flow rate of 0.2 mL per minute. Mass spectrum was measured in a negative mode, and the peak area ratio of the internal standard compound was calculated by integration of the peak area from chromatogram corresponding to each ion by measuring a precursor ion; m/z=583.1, fragment ion; m/z=224.7 and m/z=298.8 for αSQMG C18:0, a precursor ion; m/z=567.1, fragment ion; m/z=224.7 and m/z=283.1 for αSQAP C18:0, and a precursor ion; m/z=555.1, fragment ion; m/z=224.7 and m/z=298.8 for a internal standard compound αSQMG C16:0. As a method of quantitative analysis, an internal standard analysis was adopted. More specifically, a standard curve was drawn based on the peak area ratio of the internal standard compound by analyzing the sample to which the test compound was added, to determine the quantity of the test compound. The pharmacokinetics of αSQAP C18:0 was tested by administering 1 mg/kg of αSQAP C18:0 to animals in the same manner as Example 3 except that human sophageal squamous cell carcinoma cells TE-8 were used as tumor of transplanted tumor model and that intravenous administration was adopted as substitute for interperitoneal administration.

For the molecule “3-O-[4-O-(biotinyl-β-alanyl)-6-sulfo-α-D-quinovopyranosyl]-1-0-stearoyl-glycerol [biotinated αSQMG C18:0]”, the tumor-resident amount entry in series [1] (9 hours after administration) is recorded as “high”. Further, in series [1] (tumor extracted 9 hours after administration, TE-8 tumor), the “staining of tumor tissues (TRITC positive region)” value is given as “strongly stained according to the dose”.

For `CCCCCCCCCCCCCCCCCC(=O)OCCCO[C@H]1O[C@H](CS(=O)(=O)[O-])[C@@H](O)[C@H](O)[C@H]1O.[Na+]` [αSQAP C18:0], in series [2] (SW480 tumor), the “concentration in tumor tissues immediately after administration in comparison with other tissues” value is reported as “low”. For the same molecule, the “time of the highest concentration in blood plasma, liver, kidney, spleen and lung” value in series [2] (SW480 tumor-bearing nude mice) is reported as “immediately after the administration”. In addition, the “time after administration at which concentration fell below the detection limit, blood plasma” value is on record as “four” in series [2] (SW480 tumor-bearing nude mice, blood plasma) and “two” in series [3] (TE-8 tumor-bearing nude mice, blood plasma). In series [2] (SW480 tumor-bearing nude mice, kidney), the “time after administration at which concentration fell below the detection limit, kidney” value is on record as “four”. Also, the “time after administration at which concentration fell below the detection limit, liver” value in series [2] (SW480 tumor-bearing nude mice, liver) was 12 h; in series [3] (TE-8 tumor-bearing nude mice, liver), “two”. Moreover, the “time after administration at which concentration fell below the detection limit, lung” value in series [2] (SW480 tumor-bearing nude mice, lung) is reported as “four”; in series [3] (TE-8 tumor-bearing nude mice, lung) it was “two”. Also, the “time after administration at which concentration fell below the detection limit, spleen” value in series [2] (SW480 tumor-bearing nude mice, spleen) is “four”; in series [3] (TE-8 tumor-bearing nude mice, spleen), 24 h. The “concentration in tumor tissues 24 hours after administration” value in series [2] (SW480 tumor, 24 hours) is “detectable”. Moreover, the “residence in tumor tissues” value in series [2] (SW480 tumor, followed to 24 hours) is on record as “resides for a long period”; in series [3] (TE-8 tumor, followed to 24 hours), “resides for a long period”. Besides, the “concentration in tumor tissue immediately after administration in comparison with other organs” value in series [3] (TE-8 tumor) is reported as “low”. The “time of the highest concentration in blood plasma, liver, spleen and lung” value in series [3] (TE-8 tumor-bearing nude mice) is listed as “immediately after administration”. For the same molecule, the “concentration in tumor tissue after 24 hours” value in series [3] (TE-8 tumor, 24 hours) is given as “detectable”. Moreover, the “course of concentration in tumor tissue after two hours” value in series [3] (TE-8 tumor, after two hours) is “no decrease tendency”.

Values taken from patent US20100202971A1, “COMPOUND HAVING TUMOR-RESIDENT PROPERTY” (priority 2009, published 2010).
